Measured values taken from patent US11939298B1, “5-(4,5-bis(4-bromophenyl)-2-(4-chlorophenyl)-1H-imidazol-1-yl)pentanoic acid as an antimicrobial compound” (KING FAISAL UNIVERSITY, priority 2023, dated 2024).

Columns and labels:
Format in all cases: cell-based
Aspergillus flavus = experiment: Agar plate disc-diffusion, antifungal, Aspergillus flavus; conditions: Sabouraud's dextrose agar, 37° C., 72 hours, DMSO zone subtracted; for inhibition zone, Aspergillus flavus, B: B = concentration of comp. = 30,000 μL
Method: (§1) The agar plate disc-diffusion method was applied. […] The discs were then placed onto the surface of agar plates (nutrient agar for bacteria and Sabouraud's dextrose agar for fungi) seeded with the test organism. Each plate contained 15 mL of the agar medium, previously seeded with 0.2 mL of the broth culture of each organism pregrown for 18 hours. The plates were incubated at 37° C. for 48 hours, and 72 hours for fungi. The inhibition zones was measured in mm. Discs impregnated with DMSO were used as a control, and its inhibition zone was subtracted from the tested compound actual inhibition zone.
(§2) Their antibacterial screened against gram positive bacteria namely Bacillus cereus and Staphylococcus aureus and gram-negative bacterial strains namely Pseudomonas aeruginosa and Escherichia coli, while their antifungal activity screened against Aspergillus flavus and Chrysosporium keratinophilum as shown in tables 1 and 2 using ciprofloxacin as a reference.

Bacillus cereus = experiment: Agar plate disc-diffusion, antibacterial, Bacillus cereus; conditions: nutrient agar, 37° C., 48 hours, DMSO zone subtracted
Method: as §1, §2

Escherichia coli = experiment: Agar plate disc-diffusion, antibacterial, Escherichia coli; conditions: nutrient agar, 37° C., 48 hours, DMSO zone subtracted
Method: as §1, §2

[1] = tested on: Chrysosporium keratinophilum; experiment: Agar plate disc-diffusion, antifungal, Chrysosporium keratinophilum; conditions: Sabouraud's dextrose agar, 37° C., 72 hours, DMSO zone subtracted
Method: The agar plate disc-diffusion method was applied. Sterilized filter papers (6 mm in diameter) were wetted with 10 μL of a solution of 5-(4,5-bis(4-bromophenyl)-2-(4-chlorophenyl)-1H-imidazol-1-yl)pentanoic acid (V) to be tested, containing 10 mg/mL in DMSO, and the discs were allowed to air dry. The discs were then placed onto the surface of agar plates (nutrient agar for bacteria and Sabouraud's dextrose agar for fungi) seeded with the test organism. Each plate contained 15 mL of the agar medium, previously seeded with 0.2 mL of the broth culture of each organism pregrown for 18 hours. The plates were incubated at 37° C. for 48 hours, and 72 hours for fungi. The inhibition zones was measured in mm. Discs impregnated with DMSO were used as a control, and its inhibition zone was subtracted from the tested compound actual inhibition zone.
as §2

Pseudomonas aeruginosa = experiment: Agar plate disc-diffusion, antibacterial, Pseudomonas aeruginosa; conditions: nutrient agar, 37° C., 48 hours, DMSO zone subtracted
Method: as §1, §2

Staphylococcus aureus = experiment: Agar plate disc-diffusion, antibacterial, Staphylococcus aureus; conditions: nutrient agar, 37° C., 48 hours, DMSO zone subtracted; for inhibition zone, Staphylococcus aureus, A: A = concentration of comp. = 10,000 μL
Method: as §1, §2

[2] = C = concentration of comp. = 50,000 μL
[3] = A = concentration of comp. = 10,000 μL
[4] = B = concentration of comp. = 30,000 μL

SMILES | inhibition zone, Aspergillus flavus, A (Aspergillus flavus; A = concentration of comp. = 10,000 μg/mL) [mm] | inhibition zone, Aspergillus flavus, B (Aspergillus flavus) [mm] | inhibition zone, Aspergillus flavus, C (Aspergillus flavus; [2]) [mm] | inhibition zone, Bacillus Cereus, A (Bacillus cereus; [3]) [mm] | inhibition zone, Bacillus Cereus, B (Bacillus cereus; [4]) [mm] | inhibition zone, Bacillus Cereus, C (Bacillus cereus; [2]) [mm] | inhibition zone, Escherichia coli, A (Escherichia coli; [3]) [mm] | inhibition zone, Escherichia coli, B (Escherichia coli; [4]) [mm] | inhibition zone, Escherichia coli, C (Escherichia coli; [2]) [mm] | inhibition zone, Chrysosporium keratinophilum, A [1, 3] [mm] | inhibition zone, Chrysosporium keratinophilum, B [1, 4] [mm] | inhibition zone, Chrysosporium keratinophilum, C [1, 2] [mm] | inhibition zone, Pseudomonas aeruginosa, A (Pseudomonas aeruginosa; A = concentration of comp. = 10 mg/mL) [mm] | inhibition zone, Pseudomonas aeruginosa, B (Pseudomonas aeruginosa; [4]) [mm] | inhibition zone, Pseudomonas aeruginosa, C (Pseudomonas aeruginosa; [2]) [mm] | inhibition zone, Staphylococcus aureus, A (Staphylococcus aureus) [mm] | inhibition zone, Staphylococcus aureus, B (Staphylococcus aureus; [4]) [mm] | inhibition zone, Staphylococcus aureus, C (Staphylococcus aureus; [2]) [mm]
O=C(O)CCCCn1c(-c2ccc(Cl)cc2)nc(-c2ccc(Br)cc2)c1-c1ccc(Br)cc1 [V, 5-(4,5-bis(4-bromophenyl)-2-(4-chlorophenyl)-1H-imidazol-1-yl)pentanoic acid] | 18 | 23 | 31 | 24 | 26 | 38 | 28 | 36 | 51 | 26 | 27 | 44 | 24 | 30 | 44 | 16 | 21 | 29
O=C(O)c1cn(C2CC2)c2cc(N3CCNCC3)c(F)cc2c1=O [Cip., ciprofloxacin, reference compound] |  | 32 |  |  |  |  |  |  |  |  |  |  |  |  |  | 42 |  | 
